Where two headings read alike, the source gives them in different places.

The values below come from patent US9751837B2, “Kinase inhibitors” (RESPIVERT LIMITED, priority 2014, dated 2017).

Data set [1] concerns Escherichia coli, WP2 uvrA. Kind of data set: Bacterial reverse mutation screen, Escherichia coli. Particulars: presence or absence of S-9 mix, plate incorporation.
The nature of data set [2]: Stability of pharmaceutical formulations (HPLC). Particulars: 1 mg/mL Na and HCl salts in 10 mM pH 7.2 phosphate buffer, 4.5% mannitol, 3% polyoxyl 40 stearate; 5° C. The class given is physicochemical. The procedure: The samples were sonicated to achieve clear solutions having the following properties: Osmolality (mOsm/kg): 310 (Na), 314 (HCl); pH: 7.00 (Na), 7.05 (HCl). 0.5 mL of the stock solutions were diluted to 1 mL with 20% DMSO in water & injected for purity analysis by HPLC. The remaining stock solutions were then split into aliquots of 0.5 mL in HPLC vials, and stored at various conditions in duplicate. Samples were stored at 5 and 25° C., before being analysed by HPLC at 1, 2 and 4 weeks. Separate samples were stored at 40° C. and analysed at 4 weeks.

The test system of data set [3] is LPS-stimulated rats. The data set can be described thus: Endotoxin-induced uveitis in rats (vi). The format is in vivo, Lewis rats. As to conditions: rats treated with intravitreal endotoxin LPS. On the procedure: Male, Lewis rats (6-8 weeks old, Charles River UK Limited) are housed in cages of 3 at 19-21° C. with a 12 h light/dark cycle (07:00/19:00) and fed a standard diet of rodent chow and water ad libitum. Non-fasted rats are weighed, individually identified on the tail with a permanent marker, and receive a single intravitreal administration into the right vitreous humor (5 μL dose volume) of 100 ng/animal of LPS (Escherichia coli 0111:B4 prepared in PBS, Sigma Aldrich, UK) using a 32-gauge needle. Untreated rats are injected with PBS. Test compound or vehicle (4% polyoxyl 40 stearate, 4% mannitol in PBS (pH 7.4)) are administered by the topical route onto the right eye (10 μL) of animals 1 hour prior to LPS, at the time of LPS administration, and 1, 2 and 4 hours post LPS administration. Before administration, the solution to be administered is sonicated to ensure a clear solution. 6 hours after LPS dosing, animals are euthanized by overdose with pentobarbitone (via cardiac puncture). Immediately after euthanasia, 10 μL of aqueous humor is collected from the right eye of the rats by puncture of the anterior chamber using a 32 gauge needle under a surgical microscope. The aqueous humor is diluted in 20 μL of PBS and total cell counts are measured immediately using a Countess automated cell counter (Invitrogen). […]

The format of data set [4] is in vivo. Particulars: four daily instillations, 0.1 and 1.0 mg/mL, rabbits.
Data set [5] deals with Salmonella typhimurium, strains TA1535, TA1537, TA98 and TA100. Kind of data set: Bacterial reverse mutation screen, Salmonella typhimurium.
Data set [6] in a line: Hydrolytic stability study (DMSO/water 3:1, 60° C.). The class given is physicochemical. The procedure: Chemical stability of compounds of the invention was assessed in a mixture of DMSO and water (3:1) at a test compound concentration of 1 mg/mL.
General HPLC Procedure • Agilent, Waters X-Select C18, 2.5 μm, 4.6×30 mm column, 4 min method, 5-95% MeCN/water (0.1% formic acid). Flow rate 2.5 mL/min. Column Oven Temperature 40° C. Detection 254 nm.
Sample Preparation • A 1.0 mg sample of test compound was dissolved in 750 μL of DMSO. Water (250 μL) was added slowly, ensuring no precipitation occurred.
Recording Stability • A 50 μL aliquot of the test solution was removed and analysed in duplicate by 5 μL HPLC injections. The peak area for the test compound was recorded following manual integration of the corresponding UV trace. • The test solution was heated to 60° C., with stirring, and 50 μL aliquots removed for HPLC analysis at 5 and 24 h timepoints.

For the molecule `COc1cc(Nc2cc(Oc3ccc(NC(=O)Nc4cc(C(C)(C)C)cc(NS(C)(=O)=O)c4OC)c4ccccc34)ccn2)ccc1C(=O)O` [Example 1, 4-((4-((4-(3-(5-(tert-Butyl)-2-methoxy-3-(methylsulfonamido)phenyl)ureido)naphthalen-1-yl)oxy)pyridin-2-yl)amino)-2-methoxybenzoic acid], the “mutagenic effects (revertant numbers)” value is on record as “absence of any mutagenic effects” in data set [1] and “absence of any mutagenic effects” in data set [5] (TA1535, TA1537, TA98, TA100, presence or absence of S-9 mix, plate incorporation). The stability in solution entry in data set [2] is listed as “stable”. Besides, the “cellular infiltration and cytokine IL-1β levels in anterior and posterior segments of the eyes” value in data set [3] is “significantly and dose-dependently reduced”. Besides, the “local tolerability of the formulations (ocular)” value in data set [4] (Phase 1: one treatment day) and in data set [4] (Phase 2: three consecutive treatment days) was “acceptable” in each case. The “dose with reduction in the mean colony count (toxicity to the bacteria)” value in data set [5] (TA1535, presence of S-9 mix) was 1500 μg/plate. Also, the “limit of solubility in the mutation test” value in data set [5] (all strains, presence and absence of S-9 mix, plate incorporation) was 1500 μg/plate.

For `C#Cc1cc(Nc2nccc(Oc3ccc(NC(=O)Nc4cc(C(C)C)nn4-c4ccc(C)cc4)c4ccccc34)n2)cc(C(=O)NCCN2CCOCC2)c1` [Reference Compound B, 3-ethynyl-5-((4-((4-(3-(3-isopropyl-1-(p-tolyl)-1H-pyrazol-5-yl)ureido)naphthalen-1-yl)oxy)pyrimidin-2-yl)amino)-N-(2-morpholinoethyl)benzamide], the “decomposition under the conditions of the hydrolytic stability experiment” value in data set [6] was “substantial decomposition”.
